In the NIST ThermoML archive (doi:10.1021/je800150h):
Numbers after ± are expanded uncertainties.

Assay: mn = molality of the nth substance listed, in mol/kg
Settings: 101 kPa, Liquid; for electrical conductivity: CyberScan CON500 conductivity meter

[Cl-].[Li+] [lithium chloride] + CCO
Settings | electrical conductivity [S/m] | mass density [kg/m3] | viscosity [mPa·s]
268.1 K, m1 = 0.196 | 0.117 ± 0.0094 | 810.9 ± 3.8 | 2.208 ± 0.1
268.1 K, m1 = 0.391 | 0.197 ± 0.016 | 817.9 ± 3.8 | 2.546 ± 0.12
268.1 K, m1 = 0.782 | 0.269 ± 0.021 | 828.4 ± 3.9 | 3.283 ± 0.15
268.1 K, m1 = 1.173 | 0.3 ± 0.024 | 838.1 ± 3.9 | 4.167 ± 0.19
268.1 K, m1 = 1.76 | 0.305 ± 0.024 | 854.5 ± 4 | 5.819 ± 0.26
268.1 K, m1 = 2.347 | 0.276 ± 0.022 | 869.4 ± 4.1 | 9.082 ± 0.38
268.1 K, m1 = 3.129 | 0.222 ± 0.018 | 887.7 ± 4.2 | 14.96 ± 0.6
268.1 K, m1 = 3.911 | 0.162 ± 0.013 | 907.8 ± 4.3 | 25.44 ± 1
273.1 K, m1 = 0.196 | 0.13 ± 0.01 | 805.1 ± 3.6 | 2.043 ± 0.096
273.1 K, m1 = 0.391 | 0.221 ± 0.018 | 810.6 ± 3.6 | 2.313 ± 0.11
273.1 K, m1 = 0.782 | 0.3 ± 0.024 | 821.3 ± 3.6 | 2.943 ± 0.14
273.1 K, m1 = 1.173 | 0.335 ± 0.027 | 832.5 ± 3.7 | 3.722 ± 0.17
273.1 K, m1 = 1.76 | 0.343 ± 0.027 | 847 ± 3.8 | 5.158 ± 0.23
273.1 K, m1 = 2.347 | 0.315 ± 0.025 | 863.1 ± 3.8 | 7.821 ± 0.33
273.1 K, m1 = 3.129 | 0.258 ± 0.021 | 882.4 ± 3.9 | 12.71 ± 0.51
273.1 K, m1 = 3.911 | 0.198 ± 0.016 | 901.1 ± 4 | 21.16 ± 0.85
278.1 K, m1 = 0.196 | 0.144 ± 0.011 | 803.2 ± 3.4 | 1.863 ± 0.088
278.1 K, m1 = 0.391 | 0.245 ± 0.02 | 810.3 ± 3.4 | 2.099 ± 0.098
278.1 K, m1 = 0.782 | 0.336 ± 0.027 | 821.5 ± 3.5 | 2.638 ± 0.12
278.1 K, m1 = 1.173 | 0.383 ± 0.031 | 834.1 ± 3.5 | 3.323 ± 0.15
278.1 K, m1 = 1.76 | 0.394 ± 0.032 | 845.5 ± 3.6 | 4.57 ± 0.21
278.1 K, m1 = 2.347 | 0.362 ± 0.029 | 864.5 ± 3.7 | 6.735 ± 0.29
278.1 K, m1 = 3.129 | 0.3 ± 0.024 | 883.6 ± 3.8 | 10.78 ± 0.44
278.1 K, m1 = 3.911 | 0.238 ± 0.019 | 902.1 ± 3.9 | 17.62 ± 0.7
283.1 K, m1 = 0.196 | 0.158 ± 0.013 | 796.1 ± 3.1 | 1.695 ± 0.08
283.1 K, m1 = 0.391 | 0.27 ± 0.022 | 800.9 ± 3.2 | 1.908 ± 0.09
283.1 K, m1 = 0.782 | 0.37 ± 0.03 | 812.2 ± 3.2 | 2.366 ± 0.11
283.1 K, m1 = 1.173 | 0.441 ± 0.035 | 823.4 ± 3.3 | 2.959 ± 0.14
283.1 K, m1 = 1.76 | 0.445 ± 0.036 | 837.4 ± 3.3 | 4.045 ± 0.18
283.1 K, m1 = 2.347 | 0.417 ± 0.033 | 854.2 ± 3.4 | 5.802 ± 0.25
283.1 K, m1 = 3.129 | 0.348 ± 0.028 | 875.7 ± 3.5 | 9.203 ± 0.38
283.1 K, m1 = 3.911 | 0.276 ± 0.022 | 891.8 ± 3.6 | 14.68 ± 0.59
288.15 K, m1 = 0.196 | 0.172 ± 0.014 | 789.7 ± 2.9 | 1.495 ± 0.071
288.15 K, m1 = 0.391 | 0.295 ± 0.024 | 795.9 ± 2.9 | 1.715 ± 0.081
288.15 K, m1 = 0.782 | 0.415 ± 0.033 | 807.5 ± 3 | 2.1 ± 0.098
288.15 K, m1 = 1.173 | 0.477 ± 0.038 | 817.5 ± 3.1 | 2.603 ± 0.12
288.15 K, m1 = 1.76 | 0.505 ± 0.04 | 831.6 ± 3.1 | 3.546 ± 0.16
288.15 K, m1 = 2.347 | 0.472 ± 0.038 | 849.1 ± 3.2 | 4.988 ± 0.23
288.15 K, m1 = 3.129 | 0.396 ± 0.032 | 868.4 ± 3.3 | 7.807 ± 0.33
288.15 K, m1 = 3.911 | 0.322 ± 0.026 | 886.9 ± 3.4 | 12.34 ± 0.49
293.15 K, m1 = 0.196 | 0.188 ± 0.015 | 786 ± 2.7 | 1.357 ± 0.065
293.15 K, m1 = 0.391 | 0.325 ± 0.026 | 791.9 ± 2.8 | 1.524 ± 0.073
293.15 K, m1 = 0.782 | 0.459 ± 0.037 | 803.3 ± 2.8 | 1.869 ± 0.088
293.15 K, m1 = 1.173 | 0.533 ± 0.043 | 813.6 ± 2.9 | 2.307 ± 0.11
293.15 K, m1 = 1.76 | 0.565 ± 0.045 | 828.8 ± 2.9 | 3.124 ± 0.14
293.15 K, m1 = 2.347 | 0.529 ± 0.042 | 845.4 ± 3 | 4.395 ± 0.2
293.15 K, m1 = 3.129 | 0.45 ± 0.036 | 864.7 ± 3.1 | 6.784 ± 0.29
293.15 K, m1 = 3.911 | 0.367 ± 0.029 | 883.4 ± 3.2 | 10.56 ± 0.43
298.15 K, m1 = 0.196 | 0.231 ± 0.018 | 782.4 ± 2.9 | 1.218 ± 0.059
298.15 K, m1 = 0.391 | 0.354 ± 0.028 | 788.3 ± 2.9 | 1.412 ± 0.068
298.15 K, m1 = 0.782 | 0.506 ± 0.041 | 799.4 ± 3 | 1.677 ± 0.079
298.15 K, m1 = 1.173 | 0.589 ± 0.047 | 810.3 ± 3 | 2.057 ± 0.096
298.15 K, m1 = 1.76 | 0.629 ± 0.05 | 823.8 ± 3.1 | 2.767 ± 0.13
298.15 K, m1 = 2.347 | 0.6 ± 0.048 | 842.3 ± 3.2 | 3.869 ± 0.18
298.15 K, m1 = 3.129 | 0.514 ± 0.041 | 861.9 ± 3.3 | 5.908 ± 0.26
298.15 K, m1 = 3.911 | 0.427 ± 0.034 | 880.5 ± 3.4 | 9.071 ± 0.37
303.15 K, m1 = 0.196 | 0.25 ± 0.02 | 776.5 ± 3 | 1.089 ± 0.053
303.15 K, m1 = 0.391 | 0.384 ± 0.031 | 782.5 ± 3.1 | 1.306 ± 0.063
303.15 K, m1 = 0.782 | 0.554 ± 0.044 | 794.7 ± 3.1 | 1.527 ± 0.073
303.15 K, m1 = 1.173 | 0.649 ± 0.052 | 804.8 ± 3.2 | 1.846 ± 0.087
303.15 K, m1 = 1.76 | 0.697 ± 0.056 | 819.5 ± 3.3 | 2.469 ± 0.11
303.15 K, m1 = 2.347 | 0.67 ± 0.054 | 837.1 ± 3.4 | 3.436 ± 0.16
303.15 K, m1 = 3.129 | 0.575 ± 0.046 | 856.7 ± 3.5 | 5.171 ± 0.23
303.15 K, m1 = 3.911 | 0.487 ± 0.039 | 875.4 ± 3.6 | 7.924 ± 0.33
308.15 K, m1 = 0.196 | 0.27 ± 0.022 | 773.8 ± 3.2 | 1.006 ± 0.05
308.15 K, m1 = 0.391 | 0.42 ± 0.034 | 779.7 ± 3.2 | 1.129 ± 0.055
308.15 K, m1 = 0.782 | 0.605 ± 0.048 | 791.2 ± 3.3 | 1.369 ± 0.066
308.15 K, m1 = 1.173 | 0.711 ± 0.057 | 802.3 ± 3.4 | 1.671 ± 0.079
308.15 K, m1 = 1.76 | 0.772 ± 0.062 | 816.6 ± 3.4 | 2.223 ± 0.1
308.15 K, m1 = 2.347 | 0.746 ± 0.06 | 835.6 ± 3.5 | 3.077 ± 0.14
308.15 K, m1 = 3.129 | 0.644 ± 0.051 | 854.7 ± 3.6 | 4.578 ± 0.21
308.15 K, m1 = 3.911 | 0.551 ± 0.044 | 873.6 ± 3.7 | 6.884 ± 0.29
313.15 K, m1 = 0.196 | 0.289 ± 0.023 | 773 ± 3.4 | 0.928 ± 0.046
313.15 K, m1 = 0.391 | 0.447 ± 0.036 | 779 ± 3.4 | 1.046 ± 0.052
313.15 K, m1 = 0.782 | 0.652 ± 0.052 | 790.7 ± 3.5 | 1.267 ± 0.061
313.15 K, m1 = 1.173 | 0.773 ± 0.062 | 801.9 ± 3.5 | 1.524 ± 0.073
313.15 K, m1 = 1.76 | 0.852 ± 0.068 | 815.8 ± 3.6 | 2.01 ± 0.094
313.15 K, m1 = 2.347 | 0.822 ± 0.066 | 835.2 ± 3.7 | 2.762 ± 0.13
313.15 K, m1 = 3.129 | 0.712 ± 0.057 | 854.7 ± 3.8 | 4.089 ± 0.18
313.15 K, m1 = 3.911 | 0.624 ± 0.05 | 873.7 ± 3.9 | 6.076 ± 0.26
318.15 K, m1 = 0.196 | 0.309 ± 0.025 | 772.2 ± 3.6 | 0.866 ± 0.044
318.15 K, m1 = 0.391 | 0.48 ± 0.038 | 778.6 ± 3.6 | 0.968 ± 0.048
318.15 K, m1 = 0.782 | 0.708 ± 0.057 | 790.9 ± 3.7 | 1.164 ± 0.057
318.15 K, m1 = 1.173 | 0.843 ± 0.067 | 801.8 ± 3.7 | 1.414 ± 0.068
318.15 K, m1 = 1.76 | 0.931 ± 0.074 | 816.8 ± 3.8 | 1.842 ± 0.087
318.15 K, m1 = 2.347 | 0.91 ± 0.073 | 834.9 ± 3.9 | 2.538 ± 0.12
318.15 K, m1 = 3.129 | 0.792 ± 0.063 | 853.9 ± 4 | 3.735 ± 0.17
318.15 K, m1 = 3.911 | 0.697 ± 0.056 | 874 ± 4.1 | 5.603 ± 0.25
323.15 K, m1 = 0.196 | 0.327 ± 0.026 | 768.7 ± 3.8 | 0.807 ± 0.041
323.15 K, m1 = 0.391 | 0.512 ± 0.041 | 774.3 ± 3.8 | 0.884 ± 0.045
323.15 K, m1 = 0.782 | 0.762 ± 0.061 | 786.1 ± 3.8 | 1.07 ± 0.053
323.15 K, m1 = 1.173 | 0.911 ± 0.073 | 796.6 ± 3.9 | 1.285 ± 0.062
323.15 K, m1 = 1.76 | 1.02 ± 0.082 | 811 ± 4 | 1.677 ± 0.079
323.15 K, m1 = 2.347 | 0.998 ± 0.08 | 830.4 ± 4.1 | 2.335 ± 0.11
323.15 K, m1 = 3.129 | 0.875 ± 0.07 | 851.3 ± 4.2 | 3.437 ± 0.16
323.15 K, m1 = 3.911 | 0.783 ± 0.063 | 869.4 ± 4.3 | 5.009 ± 0.23
